The text below walks through data of patent publication US10815197B2, “N-sulfonyl benzamides as voltage-gated sodium channel inhibitors” (SHANGHAI HAIYAN PHARMACEUTICAL TECHNOLOGY CO., LTD., priority 2016, dated 2020).

Like-named read-outs stand apart in the source and are kept apart here.

For one series, the target named is T1, hNav1.7 (Homo sapiens, UniProt Q15858).
T1 construct: host or cells: CHO
Nature of the series: Manual patch clamp experiment hNav1.7 (CHO-hNav1.7 stable cell line). The class given is cell-based. Particulars: for inhibition at 0.1 µM: read-out: Inhibition of Nav1.7 100 nM(%); for inhibition at 1 µM: read-out: Inhibition of Nav1.7 1000 nM(%). An excerpt: Assay 1: Manual Patch Clamp Experiment of Sodium Ion (hNav1.7, hNav1.5 and hNaV1.8) and Calcium Ion (hCav3.2) Channels
hNav1.7, hNav1.5 Manual Patch Clamp Experiment:
Patch voltage clamp electrophysiology allows for the direct measurement and quantification of current block of voltage-gated sodium channels (NaV's), and allows the determination of the time and voltage-dependence of block which has been interpreted as differential binding to the resting, open and inactivated states of the sodium channel to reflect the compound's inhibitory or activating effects (Hille, B., Journal of General Physiology (1977), 69: 497-515).
Representative compounds of the present invention were subject to a manual patch clamp experiment and the purpose of this study was to test the effect of compounds on this ion channel current on a stable cell line transfected with a specific ion channel using a manual patch clamp method. The used stable cell lines CHO-hNav1.7 and HEK-hNav1.5 were from Genionics and WuXi Apptec (Shanghai) respectively.
Manual patch clamp experimental program is as follows:
(1) Preparation of solutions and compounds: The whole cell patch clamp technique was used to record hNav1.7 and hNav1.5 currents. In the experiment, the composition of extracellular fluid (mM): HEPES: 5, NaCl: 40, KCl: CaCl2: 1, MgCl2: 1, CdCl2: 0.1, TEA-Cl: 20. The pH was adjusted to 7.3 with NaOH and the osmotic pressure was adjusted to 310-320 mOsm with sucrose, filtered and stored at 4° C. The composition of the intracellular fluid (mM): HEPES: 10, NaCl: 10, CsOH: 5, CsF: 140, EGTA: 1. The pH was adjusted to 7.3 with CsOH and the osmotic pressure was adjusted to 280-290 mOsm with sucrose, filtered and stored at −20° C.
The positive control and the test compound were firstly dissolved in 100% DMSO (Sigma-Aldrich, D2650), configured as stock solution at a concentration (100 nM, 1000 nM).) The above stock solution was serially diluted with DMSO prior to the experiment, the solution was further diluted with extracellular solution to obtain the test solution of the desired concentration.
(2) Manual Patch Clamp Experiment: The cell suspension was added to a 35 mm petri dish and placed on an inverted microscope stage. The cells were perfused with an extracellular fluid and the flow rate was 1-2 mL/min after cell adherence. The glass microelectrode was prepared in two steps by a microelectrode puller with an inlet water resistance of 2-5 MΩ. A/D-D/A digital-analog conversion was performed by Digidata 1440 (Molecular Devices) and pCLAMP software (version 10.2, Molecular Devices) for stimulation and signal acquisition; the signal was amplified by patch clamp amplifier (Multiclamp 700B, Molecular Devices), and filtering is 4 KHz.
Two different voltage stimulation procedures were used in the hNav1.7 and hNav1.5 manual patch clamp experiments.
One is the inactivation stimulation program, the clamp potential is set at V1/2 of the corresponding channel, i.e., about 50% of the channels are inactivated, then the voltage is applied to −120 mV for 50 ms, then depolarized to −10 mV for 20 ms leading to sodium current, and finally returned to the clamp potential. This stimulation program can also be called channel state-dependent voltage stimulation program.
The other is the non-inactivation stimulation program, the clamp potential is maintained at −120 mV, voltage stimulation is given to −10 mV for 20 ms leading to sodium current, and finally returned to the clamp potential. That is, all channels have not experienced inactivation status, but activate directly from the resting state under the conditions of the stimulation program.
The time intervals of these two voltage stimulation programs were 10 s. The inhibitory effect of the compound was calculated by the change of the current before and after dosing, the IC50 value was fitted by the Hill equation.

Series [1] can be described thus: Metabolism stability assay, human liver microsomes. It is filed as in vitro ADME. Particulars: for half-life at 1 µM: pH 7.4; for metabolic stability (in words): from Table 7. The procedure:
Assay 4: Metabolism Stability Assay 1. […] Buffer A: 1 L solution of 100 mM potassium dihydrogen phosphate containing 1 mM EDTA (Sigma, V900157-100G) was prepared. Buffer B: 1 L solution of 100 mM dipotassium hydrogen phosphate containing 1 mM EDTA was prepared. Buffer C: 700 mL of buffer B was taken out and titrated with buffer A to pH 7.4. 2. […] 2.2 20 μl (20 mg/mL) of liver microsomes (Corning Lot. NO. 4133007) stock solution was added to 513.4 μl of buffer C on wet ice. 0.75 mg/mL liver microsomal solution was obtained. 2.3 1.5 μl of each of the above-mentioned compound to be tested and ketanserin solution was added to 498.5 μl of liver microsomal solution (0.7 5 mg/mL) respectively on wet ice. 1.5 μM mixed solution of compound to be tested and 1.5 μM mixed solution of ketanserin were obtained. 2.4 At the time points 0, 5, 15, 30, 45, and 60 min, 30 μl of the mixed solution of compound to be tested and 30 μl of the mixed solution of ketanserin were dispensed into the reaction plate on wet ice, respectively. 2.5 5 mg reduced coenzyme II (Roche, 10621706001) was weighed and dissolved in 1 mL of buffer C. 6 mM reduced coenzyme II solution was obtained. The reduced coenzyme II solution was dispensed into the reaction plate. 2.6 Imipramine was dissolved to give a 10 mM solution. 10 μl of imipramine solution was added to 100 mL of blank acetonitrile to generate the internal reference. 2.7 At 0 min, 135 μL of iced acetonitrile (Merck (Lot. 1778229518)) containing the internal reference was added to each well and then 15 μL of buffer C was added. 2.8 The reaction plate was placed into a 37° C. water bath incubator for 5 min. In the reaction plate, 15 μL of reduced coenzyme II solution was added to each well to initiate the reaction, and the timing was started. At the time points of 5, 15, 30, 45, and 60 min, 135 μL of iced acetonitrile containing the internal reference was added to each well to terminate the reaction. 2.9 The reaction plate was sealed with an aluminum film, placed on a vibration mixer and shaken at 500 rpm for 5 min. The plate was then centrifuged in a centrifuge at 3750 rp for 15 min. 2.10 The sample was diluted with pure water in accordance with the ratio of 1:1 and detected by LC/MS. Half-life: 0.693/K (the slope by plotting based on the incubation time and logarithm of the concentration value) Clearance ratio: (0.693/half-life)*(1/protein concentration (0.5 mg/mL))*(proportional factor) Wherein, the K value and the proportional factor were calculated by those skilled in the art according to the methods described in the prior art and contained in the instructions of the liver microsome product.

T1 sequence (Q15858 whole entry): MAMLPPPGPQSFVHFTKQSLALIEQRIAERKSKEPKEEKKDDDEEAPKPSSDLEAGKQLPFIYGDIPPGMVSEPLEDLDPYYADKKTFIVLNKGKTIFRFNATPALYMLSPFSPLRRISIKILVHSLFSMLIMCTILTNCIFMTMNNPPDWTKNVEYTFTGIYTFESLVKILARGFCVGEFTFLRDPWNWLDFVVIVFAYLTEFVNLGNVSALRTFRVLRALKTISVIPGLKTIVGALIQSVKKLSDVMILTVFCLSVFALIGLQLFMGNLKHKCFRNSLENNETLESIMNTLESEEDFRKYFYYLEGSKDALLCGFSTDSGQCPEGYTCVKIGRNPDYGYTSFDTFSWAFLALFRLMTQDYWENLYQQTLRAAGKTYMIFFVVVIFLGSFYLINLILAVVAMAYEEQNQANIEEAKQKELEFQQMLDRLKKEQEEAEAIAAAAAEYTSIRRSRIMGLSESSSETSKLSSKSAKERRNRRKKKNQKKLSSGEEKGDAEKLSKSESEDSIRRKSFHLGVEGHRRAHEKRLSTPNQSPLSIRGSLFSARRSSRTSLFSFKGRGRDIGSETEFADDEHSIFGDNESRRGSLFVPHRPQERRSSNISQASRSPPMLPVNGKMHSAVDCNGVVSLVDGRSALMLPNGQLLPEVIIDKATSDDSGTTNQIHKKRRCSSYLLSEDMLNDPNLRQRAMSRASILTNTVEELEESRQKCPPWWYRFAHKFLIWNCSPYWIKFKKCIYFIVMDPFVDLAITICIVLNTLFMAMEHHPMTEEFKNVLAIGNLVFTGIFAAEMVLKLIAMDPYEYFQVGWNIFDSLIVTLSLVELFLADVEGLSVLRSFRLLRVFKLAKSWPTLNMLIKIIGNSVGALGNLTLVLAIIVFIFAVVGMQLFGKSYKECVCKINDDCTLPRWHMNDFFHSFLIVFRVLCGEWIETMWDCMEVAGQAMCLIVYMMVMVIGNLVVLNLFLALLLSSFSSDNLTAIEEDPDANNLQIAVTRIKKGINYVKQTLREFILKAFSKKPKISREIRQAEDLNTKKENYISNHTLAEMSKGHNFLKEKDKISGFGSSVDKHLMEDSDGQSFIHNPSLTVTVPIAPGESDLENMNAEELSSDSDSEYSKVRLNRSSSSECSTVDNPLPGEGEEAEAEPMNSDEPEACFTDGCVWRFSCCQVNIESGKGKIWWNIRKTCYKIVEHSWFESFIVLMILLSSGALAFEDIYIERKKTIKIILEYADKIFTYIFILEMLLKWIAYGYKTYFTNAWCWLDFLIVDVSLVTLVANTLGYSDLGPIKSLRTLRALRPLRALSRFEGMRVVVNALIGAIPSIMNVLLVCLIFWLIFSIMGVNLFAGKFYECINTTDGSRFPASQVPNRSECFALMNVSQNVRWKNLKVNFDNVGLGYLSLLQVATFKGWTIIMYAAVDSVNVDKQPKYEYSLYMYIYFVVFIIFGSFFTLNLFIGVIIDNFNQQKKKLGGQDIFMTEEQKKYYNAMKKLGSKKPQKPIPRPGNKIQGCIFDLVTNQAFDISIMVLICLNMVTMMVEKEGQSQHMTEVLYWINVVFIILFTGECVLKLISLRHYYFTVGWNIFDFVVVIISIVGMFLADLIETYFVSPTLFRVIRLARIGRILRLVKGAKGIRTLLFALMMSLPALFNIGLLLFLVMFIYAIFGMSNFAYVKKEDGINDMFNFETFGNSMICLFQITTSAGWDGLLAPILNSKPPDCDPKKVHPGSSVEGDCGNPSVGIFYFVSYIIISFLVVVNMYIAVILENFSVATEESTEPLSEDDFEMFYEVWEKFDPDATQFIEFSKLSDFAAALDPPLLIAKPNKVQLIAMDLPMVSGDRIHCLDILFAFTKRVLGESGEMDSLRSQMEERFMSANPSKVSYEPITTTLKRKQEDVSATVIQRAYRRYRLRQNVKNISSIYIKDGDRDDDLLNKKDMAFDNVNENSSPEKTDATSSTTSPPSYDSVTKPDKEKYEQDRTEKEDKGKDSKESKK

For the molecule `O=C(NS(=O)(=O)C1CC1)c1cc(Cl)c(CN2CCN(c3ccc(OC(F)(F)F)c(Cl)c3)CC2)cc1F` [Compound Z-92], the inhibition at 0.1 µM on hNav1.7 (compound at 100 nM) was 94.5%. For the same molecule, on hNav1.7 (compound at 1000 nM), the inhibition at 1 µM was found to be 97.3%. Moreover, in series [1], the “Clearance” value is reported as 0.07 mL/min/kg and the half-life at 1 µM was 420 h.
Take `Cc1cc(N2CCN(Cc3cc(F)c(C(=O)NS(C)(=O)=O)cc3Cl)CC2)ccc1Cl` [Compound C13, reference compound]: in series [1], the “Clearance” value was 138.91 mL/min/kg, the “metabolic stability (in words)” value is “significantly reduced” and the half-life at 1 µM stood at 0.208 h.
For the molecule `O=C(NS(=O)(=O)C1CC1)c1cc(Cl)c(CN2CCN(c3ccc(Cl)c(Cl)c3)CC2)cc1F` [Compound Z-89, 5-chloro-N-(cyclopropylsulfonyl)-4-((4-(3,4-dichlorophenyl)piperazin-1-yl)methyl)-2-fluorobenzamide], at hNav1.7, the inhibition at 0.1 µM was 94.8% and the inhibition at 1 µM was determined as 99.7%. For the same molecule, in series [1], the “Clearance” value amounted to 6.49 mL/min/kg and the half-life at 1 µM was determined as 4.46 h.
For `CS(=O)(=O)NC(=O)c1cc(Cl)c(CN2CCN(c3ccc(C4CC4)c(Cl)c3)CC2)cc1F` [Compound C12, reference compound], in series [1], the “Clearance” value was 78.28 mL/min/kg, the “metabolic stability (in words)” value is “significantly reduced” and the half-life at 1 µM turned out to be 0.37 h.
Take `Cc1cc(C(=O)NS(=O)(=O)C2CC2)c(F)cc1OC[C@H]1CCCN1c1ccc(C(F)(F)F)cn1` [Compound Z-195]: the inhibition at 0.1 µM at hNav1.7 (compound at 100 nM) came to 76.7%. Moreover, the inhibition at 1 µM at hNav1.7 (compound at 1000 nM) came out at 92.7%. Also, in series [1], the “Clearance” value is given as 20.86 mL/min/kg and the half-life at 1 µM came to 1.39 h.
For `O=C(NS(=O)(=O)C1CC1)c1cc(Cl)c(CN2CCN(c3ccc(OC(F)(F)F)cn3)CC2)cc1F` [Compound Z-159], the inhibition at 0.1 µM on hNav1.7 (compound at 100 nM) is 90.6%. Also, the inhibition at 1 µM on hNav1.7 (compound at 1000 nM) is 97.3%. Besides, in series [1], the “Clearance” value was found to be 3.69 mL/min/kg and the half-life at 1 µM is 7.84 h.
Take `O=C(NS(=O)(=O)C1CC1)c1cc(Cl)c(OC2CCN(c3ccc(Cl)c(Cl)c3)CC2)cc1F` [Compound Z-117, 5-chloro-N-(cyclopropylsulfonyl)-4-((1-(3,4-dichlorophenyl)piperidin-4-yl)oxy)-2-fluorobenzamide]: at hNav1.7 (compound at 100 nM), the inhibition at 0.1 µM is 89.3%. The inhibition at 1 µM on hNav1.7 (compound at 1000 nM) came out at 96.1%. In series [1], the “Clearance” value is 5.41 mL/min/kg and the half-life at 1 µM amounted to 5.36 h.
As to `O=C(NS(=O)(=O)C1CC1)c1cc(Cl)c(OC[C@H]2CCCN2c2ccc(C(F)(F)F)cc2)cc1F` [Compound Z-80, (R)-5-chloro-N-(cyclopropylsulfonyl)-2-fluoro-4-((1-(4-(trifluoromethyl)phenyl)pyrrolidine-2-yl)methoxy)benzamide], at hNav1.7 (compound at 100 nM), the inhibition at 0.1 µM is 90.5%. The inhibition at 1 µM on hNav1.7 (compound at 1000 nM) was 96.8%. In series [1], the “Clearance” value was determined as 36.37 mL/min/kg and the half-life at 1 µM came to 0.796 h.
With `O=C(NS(=O)(=O)C1CC1)c1cc(Cl)c(OC[C@H]2CCCN2c2ccc(C(F)(F)F)nc2)cc1F` [Compound Z-119, (R)-5-chloro-N-(cyclopropylsulfonyl)-2-fluoro-4-((1-(6-(trifluoromethyl)pyridin-3-yl)pyrrolidin-2-yl)methoxy) benzamide], in series [1], the “Clearance” value turned out to be 22.57 mL/min/kg and the half-life at 1 µM is 1.28 h.
